Several values for one entry are separate records, joined by “and”; a condition that tells them apart may be missing. Identical values can stand only once. Like-named read-outs stand apart in the source and are kept apart here. A value given as a limit tells only on which side of the number the result lay.

These results are taken from PMC5330453, “Synthesis and biological evaluation of dihydropyrano-[2,3-c]pyrazoles as a new class of PPARγ partial agonists” (PLoS ONE, 2017).

Experiment [1] concerns the target T1, hPPARγ LBD (Homo sapiens, UniProt P37231).
T1 sequence (P37231 238-503 limits assumed): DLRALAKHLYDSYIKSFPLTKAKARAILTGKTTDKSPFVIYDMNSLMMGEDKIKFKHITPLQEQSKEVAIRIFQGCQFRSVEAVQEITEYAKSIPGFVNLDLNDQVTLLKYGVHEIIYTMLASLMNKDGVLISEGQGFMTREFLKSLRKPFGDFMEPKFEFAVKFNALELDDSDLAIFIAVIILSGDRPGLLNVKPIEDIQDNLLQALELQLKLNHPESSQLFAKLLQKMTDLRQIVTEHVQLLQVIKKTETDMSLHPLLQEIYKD
Briefly: TR-FRET competitive binding assay (LanthaScreen), displacement of a fluorescent pan PPAR agonist tracer. Conditions: GST-tagged PPARγ-LBD, 10 concentrations 3 nM to 500 μM, triplicate. On the technique in general: Time-resolved FRET reads energy transfer from a long-lived donor to a nearby acceptor.
Procedure: IC50 values for respective compounds were determined by competitive binding using time-resolved fluorescence resonance energy transfer (LanthaScreen, Invitrogen) on a Victor2 microplate reader (PerkinElmer). Briefly, a terbium labeled anti-GST antibody was used to label purified GST-tagged PPARγ-LBD (ligand binding domain). Energy transfer from terbium to the tracer, a fluorescent pan PPAR agonist, enabled read-out of each test compounds’s ability to displace the tracer. RFU values from dose-response curves (triplicate sampling) for test compounds as well as positive controls (rosiglitazone) were then analyzed using GraphPad Prism [33]. An unrestrained sigmoidal (one-binding site) dose-response curve was fitted to each data set by linear regression and allowing for determination of IC50 values.

The test system of another experiment is PPARγ. Further details: method as in PMID 23432662. The following applies: earlier study; read-out: inhibitor activity IC50; cited from earlier work.
The test system of experiment [2] is adipocyte differentiation. Further details: method as in PMID 23432662. Conditions: earlier study; cited from earlier work.
For experiment [3], the target named is T1, hPPARγ LBD. Briefly: Nuclear receptor-LBD transactivation (Gal4-LBD luciferase reporter) in mouse embryo fibroblasts. It is filed as cell-based. Further details: expressed in transfected cells; host or cells: mouse embryo fibroblasts (MEFs). Conditions: for transactivation selectivity towards all three PPAR subtypes: compared with PPARα and PPARδ transactivation; for induction of transcriptional activation (in words): cell based transactivation assay. From the text:
Mouse embryo fibroblasts (MEFs) were propagated in Dulbeccos Modified Eagle’s Media (DMEM) supplemented with 10% FCS and antibiotics.
Cells (Hepa 1–6 were used for PPARα whereas MEFs were used for PPARγ, PPARδ and RXRα transfections) were transfected in solution by Metafectene (Biontex) lipofection, essentially according to the manufacturer’s instructions and seeded in media (MEM or DMEM supplemented with 10% fetal calf serum and antibiotics in 96-well dishes at 24000 cells/cm^2. The transfection plasmid mix included the Gal4-responsive luciferase reporter, the expression vector for the fusion between the Gal4 DNA-binding domain and the nuclear receptor ligand binding domains, and a CMV-Renilla luciferase normalization vector (pRL-CMV, Promega). Six hours after addition of transfection mix to the cells, the media was changed to media (MEM or DMEM) supplemented with vehicle (0.1% DMSO), positive control (1 μM Rosiglitazone, 30 nM GW7647, 1 μM L165041 or 0.2 μM LG1069 for PPARγ, PPARα, PPARδ and RXRα, respectively), or compound. Approx. 18 hours later, cells were harvested and lysates analyzed for Photinus and Renilla luciferase activity by luminometry. All data points were performed in at least triplicate and each sample measured in duplicate. Luminometer raw data was analyzed in Microsoft Excel spreadsheets and presented as column graphs depicting average values of triplicates and including standard deviations.

Where [4] appears, read: hPPARγ LBD ligand displacement IC50, TR-FRET.
Where [5] appears, read: read-out: hPPARγ LBD ligand displacement IC50, TR-FRET.

Regarding `Cc1cc(C)c([C@@H]2C(C#N)=C(N)Oc3n[nH]c(C)c32)cc1COc1ccc(Cl)cc1C` (stereo in doubt) [compound 4], the figures for the IC50 on hPPARγ LBD [1] (setting [4]) and with PPARγ were 32 µM and 30 µM, respectively. In experiment [2], the “induction of adipocyte differentiation” value is listed as “relatively poor induction of adipocyte differentiation”.
With `Cc1ccc(C2C(C#N)=C(N)Oc3[nH]nc(C)c32)c(C)c1` (centres unmarked) [10aa, 6-Amino-4-(2,4-dimethylphenyl)-3-methyl-1,4-dihydropyrano[2,3-c]pyrazole-5-carbonitrile], the IC50 – broadly, the concentration that inhibits the measured activity by half – at hPPARγ LBD [1] (setting [4]) was 407 µM and > 100 µM.
Same read-out and setting: under `Cc1nn(-c2ccccc2)c2c1C(c1ccccc1)C(C#N)=C(N)O2` (centres unmarked) [10ad, 6-Amino-3-methyl-1,4-diphenyl-1,4-dihydropyrano[2,3-c]pyrazole-5-carbonitrile] stands 215 µM and > 100 µM.
In the case of `Cc1ccc(C)c(C2C(C#N)=C(N)Oc3c2c(C)nn3-c2ccc(Cl)cc2)c1` (centres unmarked) [10ae, 6-Amino-1-(4-chlorophenyl)-4-(2,5-dimethylphenyl)-3-methyl-1,4-dihydropyrano[2,3-c]pyrazole-5-carbonitrile], the IC50 at hPPARγ LBD [1] (setting [4]) is 0.52 µM and ≤ 1 µM. For the same compound, the “transactivation selectivity towards all three PPAR subtypes” value on hPPARγ LBD [3] is “selective against PPARγ”.
For the compound `Cc1ccccc1C1C(C#N)=C(N)Oc2c1c(C)nn2-c1ccc(Cl)cc1` (centres unmarked) [10af], the IC50 on hPPARγ LBD [1] (setting [5]) is at most 1 µM. Besides, the “transactivation selectivity towards all three PPAR subtypes” value at hPPARγ LBD [3] is on record as “selective against PPARγ”.
`Cc1nn(-c2ccccc2)c2c1C(c1ccc(Cl)cc1Cl)C(C#N)=C(N)O2` (centres unmarked) [10ag, 6-Amino-4-(2,4-dichlorophenyl)-3-methyl-1-phenyl-1,4-dihydropyrano[2,3-c]pyrazole-5-carbonitrile] registered a half-inhibitory concentration (IC50) on hPPARγ LBD [1] (setting [4]) of 14 µM.
For `Cc1ccccc1C1C(C#N)=C(N)Oc2[nH]nc(Cc3ccccc3)c21` (centres unmarked) [10b, 6-Amino-3-benzyl-5(o-tolyl)-1,4-dihydropyrano[2,3-c]pyrazole-5-carbonitrile], the IC50 at hPPARγ LBD [1] (setting [4]) amounted to 15.7 µM. The “induction of transcriptional activation (in words)” value on hPPARγ LBD [3] is on record as “did not induce transcriptional activation”.
On to `Cc1ccc(C2C(C#N)=C(N)Oc3[nH]nc(Cc4ccccc4)c32)c(C)c1` (centres unmarked) [10c, 6-Amino-3-benzyl-4-(2,4-dimethylphenyl)-1,4-dihydropyrano[2,3-c]pyrazole-5-carbonitrile], for which the IC50 on hPPARγ LBD [1] (setting [4]) is 104 µM and > 100 µM.
As for `Cc1nn(-c2ccccc2)c2c1C(c1ccc(Cl)cc1Cl)C(C#N)=C(N)O2` (centres unmarked) [10f], the “induction of transcriptional activation (in words)” value at hPPARγ LBD [3] is “did not induce transcriptional activation”.
With `Cc1ccc(C)c(C2C(C#N)=C(N)Oc3[nH]nc(-c4ccccc4)c32)c1` (centres unmarked) [10g], on hPPARγ LBD [1] (setting [5]), the IC50 is above 100 µM.
Regarding `N#CC1=C(N)Oc2[nH]nc(-c3ccccc3)c2C1c1ccccc1` (centres unmarked) [10h, 6-Amino-3,4-diphenyl-1,4-dihydropyrano[2,3-c]pyrazole-5-carbonitrile], the concentration for half-maximal inhibition (IC50) at hPPARγ LBD [1] (setting [4]) was 173 µM and > 100 µM.
Same read-out and setting: for `Cc1ccc(C2C(C#N)=C(N)Oc3[nH]nc(-c4ccccc4)c32)c(C)c1` (centres unmarked) [10i, 6-Amino-4-(2,4-dimethylphenyl)-3-phenyl-1,4-dihydropyrano[2,3-c]pyrazole-5-carbonitrile] the value was 75 µM.
The same measure, in the same setting: under `CCCc1n[nH]c2c1C(c1ccc(C)cc1C)C(C#N)=C(N)O2` (centres unmarked) [10m, 6-Amino-4-(2,4-dimethylphenyl)-3-propyl-1,4-dihydropyrano[2,3-c]pyrazole-5-carbonitrile] stands 14 µM; under `CCCc1n[nH]c2c1C(c1ccc(Cl)cc1)C(C#N)=C(N)O2` (centres unmarked) [10n, 6-Amino-4-(4-chlorophenyl)-3-propyl-1,4-dihydropyrano[2,3-c]pyrazole-5-carbonitrile], 31 µM; under `CCCc1n[nH]c2c1C(c1cc(C)ccc1C)C(C#N)=C(N)O2` (centres unmarked) [10p, 6-Amino-4-(2,5-dimethylphenyl)-3-propyl-1,4-dihydropyrano[2,3-c]pyrazole-5-carbonitrile], 91 µM.
Take `Cc1cc(C)c(C2C(C#N)=C(N)Oc3[nH]nc(C)c32)cc1COc1ccc(Cl)c2cccnc12` (centres unmarked) [10s, 6-Amino-4-(5-(((5-chloroquinolin-8-yl)oxy)methyl)-2,4-dimethylphenyl)-3-methyl-1,4-dihydropyrano[2,3-c]pyrazole-5-carbonitrile]: the IC50 at hPPARγ LBD [1] (setting [4]) amounted to 14 µM.
The same measure, in the same setting: for `Cc1n[nH]c2c1C(c1ccc(Cl)cc1Cl)C(C#N)=C(N)O2` (centres unmarked) [10x, 6-Amino-4-(2,4-dichlorophenyl)-3-methyl-1,4-dihydropyrano[2,3-c]pyrazole-5-carbonitrile] the value was 59 µM.
In turn, `COc1ccc(C2C(C#N)=C(N)Oc3[nH]nc(C)c32)c(C)c1C` (centres unmarked) [10y, 6-Amino-4-(4-methoxy-2,3-dimethylphenyl)-3-methyl-1,4-dihydropyrano[2,3-c]pyrazole-5-carbonitrile] yielded an IC50 on hPPARγ LBD [1] (setting [4]) of 87 µM.
